Data reported in patent publication US20190274937A1, “MICROBIOME-SAFE COSMETIC CLEANING COMPOSITIONS” (Yun NV, priority 2016, published 2019).

Tests used:
lactobacillus = experiment: More detailed screening of the products for ingredients responsible for growth retardation (data not shown); format: cell-based
Source text: A more detailed screening of the products (data not shown) led to a few common ingredients found in most shower cosmetics that can be held responsible for the growth retardation in FIG. 1.0. […] As strong and fast working preservatives; phenoxyethanol, parabens, bronopol, sulphites/sulphates, benzylalcohol and others were identified. Most allergens in perfume can also be identified as being harmful for bacteria.

Spread plating = format: cell-based; settings: surfactants of negative control P3
Method: The negative control (P3) has no growth after incubation in MRS. It contains the anionic Sodium Laureth sulphate (14% final) and cocamidopropyl betaine, some of the most commonly used surfactants in present-day soaps.

cocamidopropyl betaine
effect on bacteria / the present lactobacillus (lactobacillus): big negative influence
bactericidal effect (Spread plating): bactericidal effect

Sodium laureth sulphate
effect on bacteria / the present lactobacillus (lactobacillus): very strong bactericidal effect
bactericidal effect (Spread plating): bactericidal effect
